Measurements published in US10758534B2 (Vertex Pharmaceuticals Incorporated, priority 2014, dated 2020).

Molecular target: T1, F508del (Homo sapiens, UniProt P13569, DEL508-508)
T1 construct: expressed in transfected cells
Assay: Protocol 1: membrane potential optical assay (FLIPR III, voltage sensing dye), identification of potentiator compounds
Type: cell-based
Details: Table 3, compounds of Table 1
In short: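 Read-out: change in voltage-sensing dye fluorescence (FLIPR III) as a measure of F508del conductance. Temperature-corrected (27° C, 24 hrs) NIH 3T3 cells expressing F508del are pretreated with potentiators, dye-loaded, then stimulated with forskolin under a chloride ion gradient using chloride-free gluconate bath.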

T1 sequence (P13569 with tags, fused parts or gaps DEL508-508): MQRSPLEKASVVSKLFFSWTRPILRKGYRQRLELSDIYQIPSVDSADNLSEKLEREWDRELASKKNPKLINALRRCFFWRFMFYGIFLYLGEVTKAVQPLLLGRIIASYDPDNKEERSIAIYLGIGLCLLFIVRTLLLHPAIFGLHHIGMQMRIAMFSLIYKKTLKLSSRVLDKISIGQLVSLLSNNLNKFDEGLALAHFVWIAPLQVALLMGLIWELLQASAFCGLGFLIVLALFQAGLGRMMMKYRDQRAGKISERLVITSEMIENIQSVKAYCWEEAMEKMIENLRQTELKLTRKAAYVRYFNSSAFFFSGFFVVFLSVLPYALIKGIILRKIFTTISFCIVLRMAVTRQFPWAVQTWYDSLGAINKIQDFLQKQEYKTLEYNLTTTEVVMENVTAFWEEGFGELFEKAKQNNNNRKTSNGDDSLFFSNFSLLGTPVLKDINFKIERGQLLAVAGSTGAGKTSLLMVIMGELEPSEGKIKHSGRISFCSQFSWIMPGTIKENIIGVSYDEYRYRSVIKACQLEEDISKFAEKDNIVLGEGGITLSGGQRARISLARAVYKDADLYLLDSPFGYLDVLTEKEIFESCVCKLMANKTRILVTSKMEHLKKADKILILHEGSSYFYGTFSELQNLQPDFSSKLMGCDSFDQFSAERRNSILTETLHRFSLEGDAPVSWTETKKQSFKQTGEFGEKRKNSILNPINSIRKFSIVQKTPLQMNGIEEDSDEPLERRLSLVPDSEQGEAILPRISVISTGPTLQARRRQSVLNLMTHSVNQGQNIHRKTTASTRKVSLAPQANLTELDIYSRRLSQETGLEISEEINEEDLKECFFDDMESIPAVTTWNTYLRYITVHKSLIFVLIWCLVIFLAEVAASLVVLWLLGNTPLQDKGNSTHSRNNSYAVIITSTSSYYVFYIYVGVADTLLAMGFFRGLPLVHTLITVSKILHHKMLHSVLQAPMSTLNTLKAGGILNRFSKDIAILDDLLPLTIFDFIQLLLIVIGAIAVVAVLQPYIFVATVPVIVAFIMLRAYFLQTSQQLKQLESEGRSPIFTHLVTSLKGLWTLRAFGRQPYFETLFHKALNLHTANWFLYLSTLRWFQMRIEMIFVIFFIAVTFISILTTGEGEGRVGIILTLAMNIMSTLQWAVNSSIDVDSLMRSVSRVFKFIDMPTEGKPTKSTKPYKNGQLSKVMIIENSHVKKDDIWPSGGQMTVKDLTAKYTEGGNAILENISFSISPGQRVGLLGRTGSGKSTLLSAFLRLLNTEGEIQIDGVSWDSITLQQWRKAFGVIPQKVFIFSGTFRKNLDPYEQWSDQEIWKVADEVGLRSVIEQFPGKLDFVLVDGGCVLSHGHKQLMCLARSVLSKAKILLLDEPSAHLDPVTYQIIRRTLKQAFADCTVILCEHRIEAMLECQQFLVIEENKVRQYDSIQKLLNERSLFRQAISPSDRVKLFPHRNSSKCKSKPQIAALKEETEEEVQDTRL

SMILES	EC30
CCOc1ncc(-c2ccc(C(=O)NS(=O)(=O)c3cccc(N)n3)c(Oc3c(C)cc(C)cc3C)n2)cn1 [Compound 1130, N-[(6-amino-2-pyridyl)sulfonyl]-6-(2-ethoxypyrimidin-5-yl)-2-(2,4,6-trimethylphenoxy)pyridine-3-carboxamide]	++ (“++” means between 3 uM and 10 uM)
Cc1ccc(-c2ccc(C(=O)NS(=O)(=O)c3cccc(N)n3)c(Oc3c(C)cc(C)cc3C)n2)nc1 [Compound 1290, N-[(6-amino-2-pyridyl)sulfonyl]-6-(5-methyl-2-pyridyl)-2-(2,4,6-trimethylphenoxy)pyridine-3-carboxamide]	+++ (“+++” means <3 uM)
COc1cccnc1S(=O)(=O)NC(=O)C1(C)c2ccccc2CN1Cc1c(C)cc(C)cc1C (centres unmarked) [Compound 825, N-[(3-methoxy-2-pyridyl)sulfonyl]-1-methyl-2-[(2,4,6-trimethylphenyl)methyl]isoindoline-1-carboxamide]	++ (“++” means between 3 uM and 10 uM)
Cc1cc(C)c(Oc2nc(-c3cccc(OCC(C)C)c3F)ccc2C(=O)NS(=O)(=O)c2ccc[nH]c2=O)c(C)c1 [Compound 804, 6-(2-fluoro-3-isobutoxy-phenyl)-N-[(2-oxo-1H-pyridin-3-yl)sulfonyl]-2-(2,4,6-trimethylphenoxy)pyridine-3-carboxamide]	+++ (“+++” means <3 uM)
CC(C)COc1cc(F)cc(-c2ccc(C(=O)NS(=O)(=O)c3cccc(N)n3)c(OC3CCCCC3C)n2)c1 (centres unmarked) [Compound 1108, N-[(6-amino-2-pyridyl)sulfonyl]-6-(3-fluoro-5-isobutoxy-phenyl)-2-(2-methylcyclohexoxy)pyridine-3-carboxamide]	+++ (“+++” means <3 uM)
CC(C)COc1cc(F)cc(-c2ccc(C(=O)NS(=O)(=O)c3cccc(N)n3)c(OCCC3CCCCO3)n2)c1 (centres unmarked) [Compound 1680, N-[(6-amino-2-pyridyl)sulfonyl]-6-(3-fluoro-5-isobutoxy-phenyl)-2-(2-tetrahydropyran-2-ylethoxy)pyridine-3-carboxamide]	+++ (“+++” means <3 uM)
Cc1nccc(-c2cccc(S(=O)(=O)NC(=O)c3cc(C(C)(C)C)nn3Cc3c(C)cccc3C)c2)n1 [Compound 1496, 5-tert-butyl-2-[(2,6-dimethylphenyl)methyl]-N-[3-(2-methylpyrimidin-4-yl)phenyl]sulfonyl-pyrazole-3-carboxamide]	+++ (“+++” means <3 uM)
CC(C)COc1cc(F)cc(-c2ccc(C(=O)NS(=O)(=O)c3cccc(N)n3)c(OC3CC4CCC3C4)n2)c1 (centres unmarked) [Compound 1227, N-[(6-amino-2-pyridyl)sulfonyl]-6-(3-fluoro-5-isobutoxy-phenyl)-2-norbornan-2-yloxy-pyridine-3-carboxamide]	+++ (“+++” means <3 uM)
CCNc1ccc(C(=O)NS(=O)(=O)c2cccc(N)n2)c(Oc2c(C)cc(C)cc2C)n1 [Compound 1128, N-[(6-amino-2-pyridyl)sulfonyl]-6-(ethylamino)-2-(2,4,6-trimethylphenoxy)pyridine-3-carboxamide]	++ (“++” means between 3 uM and 10 uM)
Cc1cc(C)c(Oc2nc(N3CCCC3C)ccc2C(=O)NS(=O)(=O)c2cccc(N)n2)c(C)c1 (centres unmarked) [Compound 1553, N-[(6-amino-2-pyridyl)sulfonyl]-6-(2-methylpyrrolidin-1-yl)-2-(2,4,6-trimethylphenoxy)pyridine-3-carboxamide]	+++ (“+++” means <3 uM)
CCOc1ccc(-c2ccc(C(=O)NS(=O)(=O)c3nccnc3N)c(Oc3c(C)cc(C)cc3C)n2)cc1 [Compound 1019, N-(3-aminopyrazin-2-yl)sulfonyl-6-(4-ethoxyphenyl)-2-(2,4,6-trimethylphenoxy)pyridine-3-carboxamide]	+++ (“+++” means <3 uM)
Cc1cc(C)c(Oc2nc(-c3cnn(CC(C)C)c3)ccc2C(=O)NS(=O)(=O)c2cccc(N)n2)c(C)c1 [Compound 1177, N-[(6-amino-2-pyridyl)sulfonyl]-6-(1-isobutylpyrazol-4-yl)-2-(2,4,6-trimethylphenoxy)pyridine-3-carboxamide]	++ (“++” means between 3 uM and 10 uM)
CC(C)COc1cc(F)cc(-c2ccc(C(=O)NS(=O)(=O)c3cccc(N)n3)c(OCCCCc3ccncc3)n2)c1 [Compound 1687, N-[(6-amino-2-pyridyl)sulfonyl]-6-(3-fluoro-5-isobutoxy-phenyl)-2-[4-(4-pyridyl)butoxy]pyridine-3-carboxamide]	+++ (“+++” means <3 uM)
Cc1ccc(OCC(C)(C)C)nc1-c1ccc(C(=O)NS(=O)(=O)c2cccc(N)n2)c(N2CC(C)CC2(C)C)n1 (centres unmarked) [Compound 1645, N-[(6-amino-2-pyridyl)sulfonyl]-6-[6-(2,2-dimethylpropoxy)-3-methyl-2-pyridyl]-2-(2,2,4-trimethylpyrrolidin-1-yl)pyridine-3-carboxamide]	+++ (“+++” means <3 uM)
CC1CN(c2nc(C(C)(C)C)ccc2C(=O)NS(=O)(=O)c2cccc(N)n2)C(C)(C)C1 (centres unmarked) [Compound 1511]	+++ (“+++” means <3 uM)
CC[C@H]1CN(c2nc(-c3cc(F)cc(OCC(C)C)c3)ccc2C(=O)NS(=O)(=O)c2cccc(N)n2)C(C)(C)C1 [Compound 1611, N-[(6-amino-2-pyridyl)sulfonyl]-2-[(4R)-4-ethyl-2,2-dimethyl-pyrrolidin-1-yl]-6-(3-fluoro-5-isobutoxy-phenyl)pyridine-3-carboxamide]	+++ (“+++” means <3 uM)
C[C@@H]1CN(c2nc(-c3cc(F)cc(OCC(C)(C)O)c3)ccc2C(=O)NS(=O)(=O)c2ccccc2)C(C)(C)C1 [Compound 1581, N-(benzenesulfonyl)-6-[3-fluoro-5-(2-hydroxy-2-methyl-propoxy)phenyl]-2-[(4S)-2,2,4-trimethylpyrrolidin-1-yl]pyridine-3-carboxamide]	+++ (“+++” means <3 uM)
Cc1cc(C)c(Oc2nc(C3=CCN(C(=O)OC(C)C)CC3)ccc2C(=O)NS(=O)(=O)c2cccc(N)n2)c(C)c1 [Compound 1366, isopropyl 4-[5-[(6-amino-2-pyridyl)sulfonylcarbamoyl]-6-(2,4,6-trimethylphenoxy)-2-pyridyl]-3,6-dihydro-2H-pyridine-1-carboxylate]	+++ (“+++” means <3 uM)
CC(C)COc1cc(F)cc(-c2ccc(C(=O)NS(=O)(=O)c3cccc(N)n3)c(OC(C)c3ccccc3)n2)c1 (centres unmarked) [Compound 874, N-[(6-amino-2-pyridyl)sulfonyl]-6-(3-fluoro-5-isobutoxy-phenyl)-2-(1-phenylethoxy)pyridine-3-carboxamide]	+++ (“+++” means <3 uM)
CC(C)COc1cc(F)cc(-c2ccc(C(=O)NS(=O)(=O)c3cccc4[nH]ccc34)c(N3CCC(C)(C)CC3)n2)c1 [Compound 1323, 2-(4,4-dimethyl-1-piperidyl)-6-(3-fluoro-5-isobutoxy-phenyl)-N-(1H-indol-4-ylsulfonyl)pyridine-3-carboxamide]	+ (“+” means greater than 10 uM)

Other lines, results leading:

EC30	SMILES
+++ (“+++” means <3 uM)	CCOc1cc(-c2ccc(C(=O)NS(=O)(=O)c3cccc(N)n3)c(N3C[C@@H](C)CC3(C)C)n2)cc(C)c1C [Compound 1931, N-[(6-amino-2-pyridyl)sulfonyl]-6-(3-ethoxy-4,5-dimethyl-phenyl)-2-[(4S)-2,2,4-trimethylpyrrolidin-1-yl]pyridine-3-carboxamide]
+++ (“+++” means <3 uM)	COc1ccc(F)cc1-c1ccc(C(=O)NS(=O)(=O)c2ccc[nH]c2=O)c(N2C[C@@H](C)CC2(C)C)n1 [Compound 1830, 6-(5-fluoro-2-methoxy-phenyl)-N-[(2-oxo-1H-pyridin-3-yl)sulfonyl]-2-[(4S)-2,2,4-trimethylpyrrolidin-1-yl]pyridine-3-carboxamide]
+++ (“+++” means <3 uM)	CC1CN(c2ncccc2C(=O)NS(=O)(=O)c2cccc(Oc3ccc(C(C)C)cc3)n2)C(C)(C)C1 (centres unmarked) [Compound 1902, N—[[6-(4-isopropylphenoxy)-2-pyridyl]sulfonyl]-2-(2,2,4-trimethylpyrrolidin-1-yl)pyridine-3-carboxamide]
+++ (“+++” means <3 uM)	C[C@@H]1CN(c2nc(C(C)(C)C)ccc2C(=O)NS(=O)(=O)c2ccc[nH]c2=O)C(C)(C)C1 [Compound 1765, 6-tert-butyl-N-[(2-oxo-1H-pyridin-3-yl)sulfonyl]-2-[(4S)-2,2,4-trimethylpyrrolidin-1-yl]pyridine-3-carboxamide]
+++ (“+++” means <3 uM)	CC1CN(c2ncccc2C(=O)NS(=O)(=O)c2cccc(NCCCN(C)c3ccccc3)n2)C(C)(C)C1 (centres unmarked) [Compound 1879, N—[[6-[3-(N-methylanilino)propylamino]-2-pyridyl]sulfonyl]-2-(2,2,4-trimethylpyrrolidin-1-yl)pyridine-3-carboxamide]
++ (“++” means between 3 uM and 10 uM)	COc1ccc(OC)c(-c2ccc(C(=O)NS(=O)(=O)c3ccc[nH]c3=O)c(N3C[C@@H](C)CC3(C)C)n2)c1 [Compound 1752, 6-(2,5-dimethoxyphenyl)-N-[(2-oxo-1H-pyridin-3-yl)sulfonyl]-2-[(4S)-2,2,4-trimethylpyrrolidin-1-yl]pyridine-3-carboxamide]
+++ (“+++” means <3 uM)	CCOc1cc(C)cc(-c2ccc(C(=O)NS(=O)(=O)c3cccnc3N)c(Oc3c(C)cc(C)cc3C)n2)n1 [Compound 1795, N-[(2-amino-3-pyridyl)sulfonyl]-6-(6-ethoxy-4-methyl-2-pyridyl)-2-(2,4,6-trimethylphenoxy)pyridine-3-carboxamide]
+++ (“+++” means <3 uM)	CC1CN(c2ncccc2C(=O)NS(=O)(=O)c2cccc(OCCC3CCCCC3)n2)C(C)(C)C1 (centres unmarked) [Compound 1800, N—[[6-(2-cyclohexylethoxy)-2-pyridyl]sulfonyl]-2-(2,2,4-trimethylpyrrolidin-1-yl)pyridine-3-carboxamide]
+++ (“+++” means <3 uM)	Cc1cc(C)cc(-c2ccc(C(=O)NS(=O)(=O)N3CC[C@H](N)C3)c(N3C[C@@H](C)CC3(C)C)n2)c1 [Compound 1839, N-[(3S)-3-aminopyrrolidin-1-yl]sulfonyl-6-(3,5-dimethylphenyl)-2-[(4S)-2,2,4-trimethylpyrrolidin-1-yl]pyridine-3-carboxamide]
